From patent US7632414B2, “Process for suppressing the growth of green algae in aqueous systems” (priority 2003, dated 2009)

Test system: green algae
Conditions: after the pH of the water becomes 6.0 or more acidic on acid addition
Excerpt: Experiments have also been carried out to add acid to suppress plankton.

Structure (SMILES): Cl [hydrochloric acid]
- growth of green algae in Dian Ci Lake water: totally inhibited
